Data on 5 compounds can be found in ChEMBL document CHEMBL4422644, “Synthesis and evaluation of α-aminoacyl amides as antitubercular agents effective on drug resistant tuberculosis” (Eur J Med Chem, 2019).

What all share (assay type): functional
Test [1] has as its system Mycobacterium tuberculosis. Kind of test: Antitubercular activity against isoniazid/ethionamide resistant Mycobacterium tuberculosis isolate 1 after 7 days. The conditions noted are these: isolate 1, 168 h.
Test [2] concerns Mycobacterium tuberculosis. Kind of test: Antitubercular activity against isoniazid/ethionamide resistant Mycobacterium tuberculosis isolate 2 after 7 days. The conditions noted are these: isolate 2, 168 h.
The subject of test [3] is Mycobacterium tuberculosis. Kind of test: Antitubercular activity against multidrug-resistant Mycobacterium tuberculosis isolate 3 after 7 days. The conditions noted are these: isolate 3, 168 h.
For test [4], the system named is Mycobacterium tuberculosis. Kind of test: Antitubercular activity against multidrug-resistant Mycobacterium tuberculosis isolate 4 after 7 days. The conditions noted are these: isolate 4, 168 h.
Test [5] relates to Mycobacterium tuberculosis. Kind of test: Antitubercular activity against isoniazid/rifampicin resistant Mycobacterium tuberculosis isolate 5 after 7 days. The following applies: isolate 5, 168 h.
The test system of test [6] is Mycobacterium tuberculosis. Kind of test: Antitubercular activity against multidrug-resistant Mycobacterium tuberculosis isolate 6 after 7 days. The conditions noted are these: isolate 6, 168 h.
Test [7] relates to Mycobacterium tuberculosis. Kind of test: Antitubercular activity against multidrug-resistant Mycobacterium tuberculosis isolate 7 after 7 days. The conditions noted are these: isolate 7, 168 h.
The subject of test [8] is Mycobacterium tuberculosis. Kind of test: Antitubercular activity against multidrug-resistant Mycobacterium tuberculosis isolate 8 after 7 days. The conditions noted are these: isolate 8, 168 h.

Values after ≈ are worked out from the molar mass of the structure shown.

On to `Cc1nc(C)c(C(=O)N(c2cccc(C)c2C)C(C(=O)NC2CCCCC2)c2cccnc2)s1` (stereo not drawn), for which the MIC in test [1] was found to be 4 µg/mL (≈ 8.39 µM); in test [2], 1 µg/mL (≈ 2.1 µM); in test [3], 1 µg/mL (≈ 2.1 µM); in test [4], 2 µg/mL (≈ 4.2 µM); in test [5], 2 µg/mL (≈ 4.2 µM); in test [6], 8 µg/mL (≈ 16.8 µM). Also, the MIC in test [7] amounted to 2 µg/mL (≈ 4.2 µM); in test [8], 8 µg/mL (≈ 16.8 µM).
For `CC[C@@H](CO)NCCN[C@@H](CC)CO` [ETHAMBUTOL], the MIC in test [1] was found to be 2 µg/mL (≈ 9.79 µM); in test [2], 4 µg/mL (≈ 19.6 µM); in test [3], 4 µg/mL (≈ 19.6 µM); in test [4], 8 µg/mL (≈ 39.2 µM); in test [6], 4 µg/mL (≈ 19.6 µM); in test [7] it was 8 µg/mL (≈ 39.2 µM). Moreover, the minimal inhibitory concentration (MIC) in test [8] is greater than 8 µg/mL.
`NNC(=O)c1ccncc1` [ISONIAZID]: the minimal inhibitory concentration (MIC) in test [1] is 5 µg/mL (≈ 36.5 µM); in test [2], greater than 0.2 µg/mL; in test [3] it was greater than 0.2 µg/mL; in test [4] it was greater than 5 µg/mL; in test [5] it was 5 µg/mL (≈ 36.5 µM); in test [6], greater than 5 µg/mL. For the same compound, the MIC in test [7] and in test [8] was 5 µg/mL (≈ 36.5 µM) throughout.
In the case of `NC[C@H]1O[C@H](O[C@H]2[C@H](O)[C@@H](O[C@H]3O[C@H](CO)[C@@H](O)[C@H](N)[C@H]3O)[C@H](N)C[C@@H]2N)[C@H](O)[C@@H](O)[C@@H]1O` [KANAMYCIN], the MIC turned out to be 16 µg/mL (≈ 33 µM) in test [1]; 32 µg/mL (≈ 66 µM) in test [2]; 32 µg/mL (≈ 66 µM) in test [3]; 8 µg/mL (≈ 16.5 µM) in test [4]; 8 µg/mL (≈ 16.5 µM) in test [6]; 8 µg/mL (≈ 16.5 µM) in test [7]. Moreover, in test [8], the MIC was found to be 16 µg/mL (≈ 33 µM).
As to `CO[C@H]1/C=C/O[C@@]2(C)Oc3c(C)c(O)c4c(O)c(c(/C=N/N5CCN(C)CC5)c(O)c4c3C2=O)NC(=O)/C(C)=C\C=C\[C@H](C)[C@H](O)[C@@H](C)[C@@H](O)[C@@H](C)[C@H](OC(C)=O)[C@@H]1C` [RIFAMPIN], the minimum inhibitory concentration (MIC) worked out at 32 µg/mL (≈ 38.9 µM) in test [1]; 4 µg/mL (≈ 4.86 µM) in test [2]; 64 µg/mL (≈ 77.8 µM) in test [3]; 32 µg/mL (≈ 38.9 µM) in test [4]; 128 µg/mL (≈ 156 µM) in test [5]; 128 µg/mL (≈ 156 µM) in test [6]. Besides, the MIC in test [7] and in test [8] was greater than 128 µg/mL throughout.
